# Results reported in patent US20020183388A1, “Use of retinoids plus histone deacetylase inhibitors to inhibit the growth of solid tumors” (priority 2001, published 2002).
# Columns and labels:
# [1] = test system: PC-3 human prostate cancer cells; test: Growth assay of PC-3 cells, cell number counted; format: cell-based; settings: day 7; low dose TSA; drugs added only once on day 0
# Experimental: (§1) Data was plotted using Prism 3.0.
# Results of growth assays of the human prostate cancer cell line PC-3, are depicted in FIG. 20. Cells were treated as indicated. Cell number was counted on days 0, 3, 5, and 7. Drugs were added only once on day 0. TSA alone, retinoic acid alone, and retinol alone each inhibited cell growth by approximately 20% at day 7. The combination of low dose TSA plus retinoic acid or low dose TSA plus retinol inhibited cell growth by almost 60%.
# [2] = test system: SK-RC-39 cells (subcutaneous xenograft); test: Human tumor xenograft model in nu/nu mice; format: in vivo
# Experimental: Forty Swiss nu/nu mice were injected in the right flank subcutaneously with 5×10^6 SK-RC-39 cells that had been cultured in 7% MEM and then trypsinized. Four days later, four cohorts of 10 mice each began to receive one tail vein injection of TSA or control and one injection of ATRA-IV or control every Monday, Wednesday and Friday for the duration of the experiment. The four treatment groups were as follows: (1) PBS with 1% EtOH+empty liposomes; (2) LipoATRA (7.4-8.1 mg/kg)+PBS with 1% EtOH; (3) TSA ([…])+empty liposomes; and (4) TSA+LipoATRA. The study ended in the eighth week of treatment and at least six animals remained in each arm at the conclusion of the study and were considered evaluable. The animals tolerated the treatment well and gained weight throughout the treatment course. […] The tumor growth inhibition observed in the TSA+LipoATRA arm was much greater than that observed in the control arm. While the difference between the TSA+LipoATRA and the TSA+empty liposome arm was significant (FIG. 16), both of these treatments led to a very statistically significant difference in growth as compared to the control arm.
# [3] = test system: SK-RC-45 human renal carcinoma cells; test: Growth assay of SK-RC-45 cells, cell number counted
# Experimental: Liposome encapsulated ATRA (ATRA-IV, Antigenics Inc., New York, N.Y.) was reconstituted from 100 mg vials with 50 ml of 0.9% saline. Powdered ATRA was dissolved in EtOH to make a 1 mM ATRA (Sigma, St. Louis, Mo.) stock which was stored at −80° C. Trichostatin A (Wako Pure Chemical Industries, Ltd., Osaka, Japan) was dissolved in 5 ml of EtOH to make a 1 mg/ml stock and sodium phenylbutyrate (NaPBA, Triple Crown America, Perkasie, Pa.) was prepared weekly from the powdered form to make a 25 mM stock solution. Cell lines were maintained in Minimal Essential Medium supplemented with 7% fetal calf serum, non-essential amino acids, and 1% penicillin/streptomycin (7% MEM). Empty liposomes (provided by Antigenics Inc.) were diluted in 10 ml of 0.9% saline to equal the same concentration of liposomes in the lipoATRA.
# (§2) 24 well tissue culture dishes were seeded with cells in 1 mL tissue culture medium (Clonetics) at 10^4 cells/well. Cells were incubated overnight at 37° C. in 10% CO2. Fresh medium containing drugs: Ethanol control (EtOH), 1 μM retinoic acid (RA), 2ng/mL trichostatin A (TSA), 25 μM sodium phenylbutyrate (PBa), and combinations of these were added the next day (day zero). Fresh medium containing drugs was added on days 3 and 5. Cells were trypsinized on days 0, 3, 5, and 7 and cell number was determined using a Z1 Coulter particle counter. […] Error bars are the standard error mean (SEM) of 4 replicate wells.
# Cells were treated as indicated. The cell number was counted on day 7.
# Cells were treated as indicated and cell number was counted.
# [4] = test system: HMEC normal human mammary epithelial cells (primary cultures); test: Growth assay of HMEC cells, cell number counted; format: cell-based; settings: cells counted days 0, 3, 5, 7, 1 μM retinoic acid, 2 ng/ml TSA, 25 μM phenylbutyrate
# Experimental: Also used were HMEC cells, which are cells from a normal human mammary epithelial cell line (primary cultures).
# as §1
# The drugs were added as described above, and cells were counted on days 0, 3, 5, and 7. […] However, in the body, most normal cells are not rapidly dividing as tumor cells are. […] This experiment was primarily performed in order to determine if the retinoid and histone deacetylase inhibitor combination worked similarly in tumor and normal epithelial cells.
# [5] = test system: SK-RC-39 human renal carcinoma cells; test: Growth assay of SK-RC-39 cells, cell number counted; format: cell-based; settings: low dose TSA
# Experimental: as §1
# The cells were counted at day 7. A small amount of ethanol was added to the control cells, as a vehicle and solvent for the retinoic acid.
# Culture conditions were as shown. […] The term EtOH indicates the control cells, treated with a very low amount of ethanol, the same amount used to dissolve retinoic acid.
# [6] = test system: SK-RC-01 human renal carcinoma cells; test: Growth assay of SK-RC-01 cells, cell number counted; settings: for inhibition of cell growth (FIG. 7): retinoic acid
# Experimental: Trichostatin A (Wako Pure Chemical Industries, Ltd., Osaka, Japan) was dissolved in 5 ml of EtOH to make a 1 mg/ml stock and sodium phenylbutyrate (NaPBA, Triple Crown America, Perkasie, Pa.) was prepared weekly from the powdered form to make a 25 mM stock solution. Cell lines were maintained in Minimal Essential Medium supplemented with 7% fetal calf serum, non-essential amino acids, and 1% penicillin/streptomycin (7% MEM).
# as §2
# Cells were treated as indicated. The cell number was counted at day 7.
# The cell number was counted on day 7.
# [7] = test system: MB-435 human breast cancer cells; test: Growth assay of MB-435 cells by MTT; format: cell-based
# Experimental: 96 well tissue culture dishes were seeded with 10^4 cells/well in 200 μL DME tissue culture medium supplemented with 10% fetal calf serum (FCS).
# This assay detects color which is proportional to the number of cells present. Tissue culture medium containing drugs was removed and 200 µL of DME containing 2 mg/mL MTT ((3-4, 5-dimethyl thiazol-2yl) 2,5-diphenyltetrazolium bromide) was added to each well. Plates were incubated at 37° C. and 10% CO2 for 30 minutes. Medium containing MTT was then removed and the cells were washed once with PBS. Following removal of the PBS, 200 μL DMSO was added to each well and plates were placed on a rotating platform shaker for 5 minutes. Results were obtained by reading the absorbance at a wavelength of 550 nm using a spectrophotometer. Data was plotted using Prism 3.0.
# Cells were plated in wells on day 0. Drugs were added on day 0 and again on days 3 and 5. The MTT assay was carried out on days 5 and 7. 1 μM of retinoic acid was used vs. 1 μM of liposomal retinoic acid (ATRA-IV). A very low dose (2 ng/ml) of trichostatin A (TSA) was also used. In addition, another inhibitor of histone deacetylases, 500 μM phenylbutyrate, was used. Various combinations of the drugs were also used in the growth assays.
# Cells were treated as indicated.
# [8] = test system: LnCap human prostate cancer cells; test: Growth assay of LnCap cells, cell number counted; format: cell-based; settings: 168 h, day 7, 1 μM retinoic acid, 1 μM retinol, 0.5 μM valproic acid, drugs added only once at time 0, read-out: inhibition of cell growth (FIG. 17)
# Experimental: as §1
# Cell number was counted on days 0, 3, 5, and 7. In this experiment, retinoic acid was employed alone at 1 μM. Retinol (vitamin A) was employed at 1 μM. Valproic acid, a histone deacetylase inhibitor, was employed at 0.5 μM alone. Combinations of these drugs were also used. All drugs were added only once, at time 0, in this experiment. […] Valproic acid (VPA) alone inhibited cell growth by approximately 40%. The combination of retinoic acid plus VPA inhibited cell growth by 75%, as did the combination of valproic acid plus retinol.
# [9] = test system: SCC-15 human head and neck cancer cells; test: Growth assay of SCC-15 cells, cell number counted; format: cell-based; settings: SCC-15, 168 h, day 7, TSA 8 ng/ml, 1 μM retinoic acid, 1 μM retinol, drugs added only at time 0, read-out: inhibition of cell growth (FIG. 19)
# Experimental: as §1
# Cells were treated as indicated. Drugs were added only at time 0. Cell number was counted on days 0, 3, 5, and 7.
# Cell number was counted on days 0, 3, 5, and 7. In this experiment, a low dose of TSA (8 ng/ml) was used alone or in combination with 1 μM retinoic acid or 1 μM retinol. Drugs were added only at time 0.
# [10] = cells counted on day 7, 1 μM retinoic acid, low dose TSA
# [11] = cells counted at day 7, low dose TSA
compound,measurement,setting,value
"CC(/C=C/C(=O)NO)=C\[C@@H](C)C(=O)c1ccc(N(C)C)cc1 [TSA, trichostatin A]",inhibition of cell growth (FIG. 20),[1],approximately 20%
same,"toxicity, histologic analysis of the liver, lung, spleen and kidneys","[2]; nu/nu mice, tail vein injection Mon/Wed/Fri for eight weeks",lack of toxicity
same,inhibition of tumor growth compared to control (FIG. 16),"[2]; tail vein injection Mon/Wed/Fri, eighth week of treatment, LipoATRA 7.4-8.1 mg/kg, TSA 34-41 μg/ml",38%
same,inhibition of cell growth (FIG. 8),[3]; [10],60-65%
same,"inhibition of cell growth, high dose TSA (FIG. 8)","[3]; cells counted on day 7, TSA 100 ng/ml",extremely effective in inhibiting kidney cancer cell growth
same,inhibition of cell growth (FIG. 2),[4],about 50%
same,inhibition of cell growth (FIG. 6),"[5]; cells counted at day 7, retinoic acid",80-90%
same,inhibition of cell growth (FIG. 9),"[5]; cells counted on day 7, 1 μM retinoic acid",approximately 75%
same,"inhibition of cell growth, high dose TSA (FIG. 7)","[6]; cells counted at day 7, TSA 100 ng/ml",roughly 100%
same,inhibition of cell growth (FIG. 7),[6]; [11],20-25%
same,inhibition of cell growth (FIG. 12),[6]; [10],approximately 25%
same,"inhibition of cell growth, high dose TSA (FIG. 12)","[6]; cells counted on day 7, high dose TSA",greater than 95%
same,"growth inhibition, high dose TSA (FIG. 3)",[7]; TSA 100 ng/ml,complete growth inhibition
same,inhibition of cell growth (FIG. 1),"[7]; day 7, 1 μM retinoic acid, 1 μM ATRA-IV, 2 ng/ml TSA, 500 μM phenylbutyrate, drugs added days 0, 3, 5",did not inhibit cell growth
same,comparison of cell growth reduction between treatments (FIG. 3),"[7]; days 3, 5, 7",better in reducing cell growth than phenylbutyrate
CCCC(CCC)C(=O)O [Valproic acid],inhibition at 0.5 µM,[8],~40%
"CC1=C(/C=C/C(C)=C/C=C/C(C)=C/C(=O)O)C(C)(C)CCC1 [retinoic acid, 3, 7 dimethyl-9-(2,6,6-trimethyl-1-cyclohenen-1-yl)-2,4,6,8,-nonatetraenoic acid]",inhibition of cell growth (FIG. 20),[1],approximately 20%
same,inhibition at 1 µM,[9],35 to 40%
same,inhibition at 1 µM,"[3]; Homo sapiens, 168 h, read-out: inhibition of cell growth (FIG. 8)",55 to 60%
same,inhibition at 1 µM,"[4]; Homo sapiens, HMEC, read-out: inhibition of cell growth (FIG. 2)",~50%
same,inhibition at 1 µM,"[6]; Homo sapiens, 168 h, read-out: inhibition of cell growth (FIG. 12)",12.5%
same,inhibition of cell growth (FIG. 7),[6]; [11],~10%
same,inhibition at 1 µM,"[7]; Homo sapiens, 168 h, day 7, 1 μM retinoic acid, 1 μM ATRA-IV, 2 ng/ml TSA, 500 μM phenylbutyrate, drugs added days 0, 3, 5, read-out: inhibition of cell growth (FIG. 1)",~20%
same,inhibition at 1 µM,[8],25%
CC1=C(/C=C/C(C)=C/C=C/C(C)=C/CO)C(C)(C)CCC1 [retinol],inhibition of cell growth (FIG. 20),[1],approximately 20%
same,inhibition at 1 µM,[9],35 to 40%
same,inhibition at 1 µM,[8],~27%
